Reference: patent US5521156A, “Cyclic neurokinin A antagonists” (priority 1994, dated 1996)
Where a SMILES comes first, the peptide text is derived from it. [ ]: non-standard residue; d: D form.

Key:
NK-1 receptor = molecular target: T1, NK-1 receptor (Cavia porcellus, UniProt P30547); experiment: NK-1 receptor binding (125I-Bolton-Hunter substance P) in guinea pig lung membranes; conditions: 0.1 nM 125I-Bolton-Hunter Lys-3 substance P, mean ± S.E.M.
T1 construct: tissue Keystone Biologicals, Cleveland, OH; host or cells: guinea pig lung
T1 sequence (P30547 whole entry): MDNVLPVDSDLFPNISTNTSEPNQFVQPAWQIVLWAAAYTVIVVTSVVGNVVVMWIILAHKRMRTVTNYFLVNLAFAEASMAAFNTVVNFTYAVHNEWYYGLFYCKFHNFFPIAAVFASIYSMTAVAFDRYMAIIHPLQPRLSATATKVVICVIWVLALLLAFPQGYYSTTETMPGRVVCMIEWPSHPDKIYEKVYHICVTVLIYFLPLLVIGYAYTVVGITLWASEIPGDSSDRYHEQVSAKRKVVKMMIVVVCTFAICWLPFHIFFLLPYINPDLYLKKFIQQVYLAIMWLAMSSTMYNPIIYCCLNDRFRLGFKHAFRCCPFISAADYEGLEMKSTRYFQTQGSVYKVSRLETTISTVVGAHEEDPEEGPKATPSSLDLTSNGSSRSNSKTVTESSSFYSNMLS
Experimental: Receptor binding assays were performed in crude tissue membranes. The NK-1 receptor binding affinity of proposed tachykinin antagonists was evaluated in guinea pig lungs (Keystone Biologicals, Cleveland, OH, kept frozen at -80° C. until use). Affinity for the NK-2 receptor was evaluated in HSKR-1 cells which are mouse 3T3 fibroblasts expressing the human jejunal NK-2 receptor. Tissues or cells were homogenized with a Polytron in 15 volumes of 50 mM Tris-HCl buffer (pH 7.4, 4° C.) containing 120 mM NaCl and 5 mM KCl and centrifuged at 48,000×g for 12 min. at 4° C. The pellet was resuspended in 15 volumes of 50 mM Tris-HCl buffer containing 10 mM EDTA and 300 mM KCl then set on ice for 30 min. The suspension was cetrifuged as above and the pellet washed by resuspension and cetrifugation two additional times in 50 mM Tris-HCl buffer (pH 7.4, 4° C.). The final pellet was resuspended in a concentration of 20 mg/ml in incubation buffer then kept at room temperature for at least 15 min prior to use. Receptor binding was initiated by addition of 250 μl membrane preparation (final protein concentration; lungs=286 μg/tube, HSKR-1 cells=100 μg/tube) in duplicate to 0.1 nM of the following radioligands: for NK-1 receptor assays, ^125 I-Bolton-Hunter Lys-3 labeled substance P (New England Nuclear, specific activity, 2200 Ci/mmol); for NK-2 receptor assays, ^125 iodohistidyl-1-neurokinin A (Amersham, specific activity, 2000 Ci/mmol) in a final volume of 500 μl of buffer containing 50 mM Tris-HCl (pH 7.4 at room temperature), 0.1% bovine serum albumin, 2 mM MnCl2, 40 μg/ml bacitracin, 4 μg/ml leupeptin and chymostatin, 1 μM thiorphan and various doses of the tachykinin antagonists. Incubations were performed at room temperature for 90 min (NK-1 receptor assays) or 2 hr (NK-2 receptor assays); binding was terminated by addition of 50 mM Tris-HCl buffer (pH 7.4, 4° C.) and filtration under vacuum through GF/B filters presoaked with 0.1% polyethyleneimine (NK-1 receptor assays) or 0.5% bovine serum albumin (NK-2 receptor assays). Nonspecific binding was defined as binding in the presence of 1 μM substance P (NK-1 receptor assays) or neurokinin A (NK-2 receptor assays) (Peptides International, Inc., Louisville, Ky.). Specific binding was calculated by subtracting nonspecific binding from total binding and corresponded to 70-90% of total binding. Data were analyzed and IC50 values generated by nonlinear regression using an iterative curve fitting program (GraphPAD Inplot, San Diego, Calif.). Protein was determined by the method of Lowry.

[1] = molecular target: T2, bovine stomach NK-2 receptor (Bos taurus, UniProt P05363); experiment: Antagonism of NK-2 receptor mediated phosphatidylinositol turnover in SKLKB82#3 cells; type: cell-based; conditions: Schild regression vs NKA, 95% confidence limits 8.22 to 8.69, read-out: pA2 (converted)
T2 construct: expressed in transfected cells; host or cells: SKLKB82#3 (mouse fibroblast cell line)
T2 sequence (P05363 1-384): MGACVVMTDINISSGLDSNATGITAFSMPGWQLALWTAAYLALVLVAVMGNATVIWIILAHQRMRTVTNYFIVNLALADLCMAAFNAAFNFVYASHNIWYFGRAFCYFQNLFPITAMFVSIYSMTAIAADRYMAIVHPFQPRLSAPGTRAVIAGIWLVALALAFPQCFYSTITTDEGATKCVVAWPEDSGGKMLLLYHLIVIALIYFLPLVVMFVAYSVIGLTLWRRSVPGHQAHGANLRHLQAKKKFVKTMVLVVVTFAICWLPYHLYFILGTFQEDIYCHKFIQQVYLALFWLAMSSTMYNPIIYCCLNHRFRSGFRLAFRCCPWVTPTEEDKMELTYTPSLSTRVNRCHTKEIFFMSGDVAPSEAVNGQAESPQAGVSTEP
Experimental: Cultured SKLKB82#3 (bovine stomach NK-2 receptor transfected into mouse fibroblast cell line) cells were seeded onto 24-well plates at 125,000 cells/well, two-three days prior to assay. Cells were loaded with 0.5 ml of 0.2 μM myo[2-^3 H(N)] inositol (American Radiolabeled Chemicals Inc., specific activity, 20 Ci/mmol) 20-24 hrs prior to assay. Cultured cells were maintained at 37° C. in a 5% CO2 environment. On the day of the assay, media was aspirated and the cells incubated in D-MEM/F-12 media containing 40 μg/ml bacitracin, 4 μg/ml each of leupeptin and chymostatin, 0.1% bovine serum albumin and 1 μM thiorphan and 10 mM LiCl. After 15 min., cyclo[Tyr-trp-Leu-Arg-Trp-Gly] SEQ. ID 6 (concentration range 0.3 nM -10 μM) was added to the cells in a volume of 0.1 ml. […] The third elution was collected and counted in 9 ml scintillation fluid. A 50 μl aliquot of the organic (bottom) phase was removed, dried in a scintillation vial and counted in 7 ml scintillation fluid.
The ratio of DPM in the aqueous phase aliquot (total inositol phosphates) to the DPM in the 50 μl organic phase aliquot (total [^3 H]-inositol incorporated) was calculated for each sample. Data are expressed as a percent of agonist-induced accumulation of [3H]-inositol phosphates over basal leTels. […]

In the case of `CC(C)C[C@@H]1NC(=O)[C@@H](Cc2c[nH]c3ccccc23)NC(=O)[C@H](Cc2ccc(O)cc2)NC(=O)CNC(=O)[C@H](Cc2c[nH]c3ccccc23)NC(=O)[C@H](CCCNC(=N)N)NC1=O` [cyclo[Tyr--trp--Leu--Arg--Trp--Gly], cyclo[Tyr-trp-Leu-Arg-Trp-Gly]] (cyclo(GY[dW]LRW)), the IC50 (NK-1 receptor) is reported as 6190 ± 277 nM and the Kb [1] is reported as 0.00355 µM.
